# Where a name gives a salt, the structure may show the parent alone.
# Molecular target: T1, β-catenin/BCL9 protein-protein interactions (Homo sapiens, UniProt P35222)
# T1 construct: C-terminally His6-tagged wild-type or mutant β-catenin (residues 138-686) proteins; made in house; host or cells: E. coli BL21 DE3
# T1 sequence (P35222 138-686): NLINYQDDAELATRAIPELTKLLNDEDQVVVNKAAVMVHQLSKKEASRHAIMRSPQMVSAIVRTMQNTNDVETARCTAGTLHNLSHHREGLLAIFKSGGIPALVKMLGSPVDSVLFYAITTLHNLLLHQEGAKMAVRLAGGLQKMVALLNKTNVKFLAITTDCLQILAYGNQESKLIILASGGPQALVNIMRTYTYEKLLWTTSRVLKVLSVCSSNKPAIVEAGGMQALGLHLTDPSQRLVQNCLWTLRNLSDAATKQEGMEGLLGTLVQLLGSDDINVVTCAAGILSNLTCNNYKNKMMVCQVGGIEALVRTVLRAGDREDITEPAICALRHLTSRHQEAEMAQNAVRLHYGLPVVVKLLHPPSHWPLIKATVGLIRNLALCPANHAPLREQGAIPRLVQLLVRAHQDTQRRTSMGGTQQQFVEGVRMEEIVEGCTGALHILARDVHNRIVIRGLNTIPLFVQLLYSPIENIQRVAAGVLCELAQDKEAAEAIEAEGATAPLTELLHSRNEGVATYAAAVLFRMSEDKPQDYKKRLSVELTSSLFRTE
# Assay: AlphaScreen competitive inhibition assay, wild-type β-catenin/BCL9
# Type: binding
# Settings: AlphaScreen assay, comparison with named compound
# Description: The purity of the wild-type and mutant β-catenin proteins was all greater than 95% as determined by the SDS-PAGE gel analysis. Both the wild-type and mutant β-catenin proteins are stable under the testing conditions. Native non-denaturing gel electrophoresis was performed to confirm the homogeneity of the purified proteins. Experiments were performed in white opaque 384-well plates from PerkinElmer, and the samples were read on a Synergy 2 plate reader (Biotek) with a sensitivity setting of 200 using AlphaScreen protocol with excitation at 680 nm and emission at 570 nm. All dilutions were made in 1×assay buffer containing 25 mM HEPES (pH=7.0), 100 mM NaCl, 0.01% Triton X-100, and 0.1% BSA. In the AlphaScreen competitive inhibition assay, 40 nM of C-terminally His6-tagged wild-type or mutant β-catenin (residues 138-686) proteins was incubated with 5 nM of N-terminal biotinylated human BCL9 26-mer (residues 350-375) for 30 min at 4° C., and then different concentrations of the tested inhibitors in the assay buffer were added to make a final volume of 20 μL. The mixture was incubated at 4° C. for 2 h. The donor and acceptor beads were added to a final concentration of 10 μg/mL in 25 μL of assay buffer. The mixture was incubated at 4° C. for 1 h. The IC50 value was determined by nonlinear least-square analysis of GraphPad Prism 5.0. […] The Ki values were derived from the IC50 values by a reported method (Nikolovska-Coleska et al. (2004) Anal. Biochem. […]: 261-273). Experiments were performed in triplicate and carried out in the presence of 1% DMSO.
row,relative inhibitory potency for β-catenin/BCL9 PPIs (in words),Structure (SMILES)
1,less potent than 6,"Cl.NCc1ccc(C(N)=O)cc1-c1ccc(F)cc1 [Compound 7, (5-Carbamoyl-4′-fluoro-[1,1′-biphenyl]-2-yl)methanaminium chloride]"
2,less potent than 6,"NC(=O)c1ccc(CCCO)c(-c2ccc(F)cc2)c1 [Compound 8, 4′-Fluoro-6-(3-hydroxypropyl)-[1,1′-biphenyl]-3-carboxamide]"
3,higher potency than 14,"Cl.NCCOc1ccc(C(=O)Nc2cccc(-c3ccc(F)cc3)c2)cc1-c1ccc(F)cc1 [Compound 9, 2-((4′-Fluoro-5-((4′-fluoro-[1,1′-biphenyl]-3-yl)carbamoyl)-[1,1′-biphenyl]-2-yl)oxy) ethanaminium chloride]"
4,higher potency than 14,"Cl.NCCOc1ccc(C(=O)Nc2cccc(-c3ccc(F)cc3)c2)cc1-c1ccc(F)c(F)c1 [Compound 13, 2-((3′,4′-Difluoro-5-((4′-fluoro-[1,1′-biphenyl]-3-yl)carbamoyl)-[1,1′-biphenyl]-2-yl)oxy) ethanaminium chloride]"

row,Structure (SMILES),relative inhibitory potency for β-catenin/BCL9 PPIs (in words)
1,"Cl.Cl.NCCOc1ccc(NC(=O)c2ccc(OCCN)c(-c3ccc(F)c(F)c3)c2)cc1-c1ccc(F)cc1 [Compound 17, 2-((5-(6-(2-Ammonioethoxy)-3′,4′-difluoro-[1,1′-biphenyl]-3-ylcarboxamido)-4′-fluoro-[1,1′-biphenyl]-2-yl)oxy) ethanaminium chloride]",more potent than 9 and 13

# Same assay, conditions: AlphaScreen assay, relative to compound 4
row,fold more potent than 4 [fold],Structure (SMILES)
1,5,"Cl.NCCCc1ccc(C(N)=O)cc1-c1ccc(F)cc1 [Compound 6, 3-(5-Carbamoyl-4′-fluoro-[1,1′-biphenyl]-2-yl) propan-1-aminium chloride]"

# Same assay, conditions: AlphaScreen assay, relative to compound 17
row,fold less potent than 17 [fold],Structure (SMILES)
1,6,"O=C(Nc1ccc(OCCO)c(-c2ccc(F)cc2)c1)c1ccc(OCCO)c(-c2ccc(F)c(F)c2)c1 [Compound 18, 3′,4′-Difluoro-N-(4′-fluoro-6-(2-hydroxyethoxy)-[1,1′-biphenyl]-3-yl)-6-(2-hydroxyethoxy)-[1,1′-biphenyl]-3-carboxamide]"
2,65,"Cc1ccc(NC(=O)c2ccc(C)c(-c3ccc(F)c(F)c3)c2)cc1-c1ccc(F)cc1 [Compound 19, 3′,4′-Difluoro-N-(4′-fluoro-6-methyl-[1,1′-biphenyl]-3-yl)-6-methyl-[1,1′-biphenyl]-3-carboxamide]"

# Same assay, conditions: wild-type β-catenin (residues 138-686)/biotinylated BCL9 26-mer; Ki derived from IC50; mean ± SD
row,Ki [µM],Structure (SMILES)
1,36.8 ± 2.72,"O=C(Nc1ccc(OCCO)c(-c2ccc(F)cc2)c1)c1ccc(OCCO)c(-c2ccc(F)c(F)c2)c1 [Compound 18, 3′,4′-Difluoro-N-(4′-fluoro-6-(2-hydroxyethoxy)-[1,1′-biphenyl]-3-yl)-6-(2-hydroxyethoxy)-[1,1′-biphenyl]-3-carboxamide]"
2,17 ± 1.99,"O=C(Nc1ccc(OC2CNC2)c(-c2ccc(F)cc2)c1)c1ccc(OC2CNC2)c(-c2ccc(F)c(F)c2)c1 [Compound 22, 3-((5-(6-(azetidin-1-ium-3-yloxy)-3′,4′-difluoro-[1,1′-biphenyl]-3-ylcarboxamido)-4′-fluoro-[1,1′-biphenyl]-2-yl)oxy)azetidin-1-ium chloride]"
3,201 ± 9.29,"Cc1cc(C(=O)Nc2ccc(O[C@H]3CCNC3)c(-c3ccc(F)cc3)c2)ccc1O[C@H]1CCNC1 [Compound 24, (S)-3-((4′-fluoro-5-(3-methyl-4-((S)-pyrrolidin-1-ium-3-yloxy)benzamido)-[1,1′-biphenyl]-2-yl)oxy) pyrrolidin-1-ium chloride]"
4,8.45 ± 2.65,"O=C(Nc1ccc(O[C@H]2CCNC2)c(-c2ccc(F)cc2)c1)c1ccc(O[C@H]2CCNC2)c(-c2ccc3ccccc3c2)c1 [Compound 25, (S)-3-((4′-fluoro-5-(3-(naphthalen-2-yl)-4-((S)-pyrrolidin-1-ium-3-yloxy)benzamido)-[1,1′-biphenyl]-2-yl)oxy) pyrrolidin-1-ium chloride]"
5,78.6 ± 10.4,"O=C(Nc1cnc(O[C@H]2CCNC2)c(-c2ccc(F)cc2)c1)c1ccc(O[C@H]2CCNC2)c(-c2ccc(F)c(F)c2)c1 [Compound 84a, 3′,4′-Difluoro-N-(5-(4-fluorophenyl)-6-((S)-pyrrolidin-3-yloxy)pyridin-3-yl)-6-((S)-pyrrolidin-3-yloxy)-[1,1′-biphenyl]-3-carboxamide dihydrochloride]"
6,84.2 ± 14.8,"O=C(Nc1ccc(O[C@H]2CCNC2)c(-c2ccc(F)cc2)c1)c1cnc(O[C@H]2CCNC2)c(-c2ccc(F)c(F)c2)c1 [Compound 84b, 5-(3,4-difluorophenyl)-N-(4′-fluoro-6-((S)-pyrrolidin-3-yloxy)-[1,1′-biphenyl]-3-yl)-6-((S)-pyrrolidin-3-yloxy)nicomide dihydrochloride]"
7,68.6 ± 14.9,"O=C(Nc1cnc(O[C@H]2CCNC2)c(-c2ccc(F)cc2)c1)c1cnc(O[C@H]2CCNC2)c(-c2ccc(F)c(F)c2)c1 [Compound 84c, 5-(3,4-difluorophenyl)-N-(5-(4-fluorophenyl)-6-((S)-pyrrolidin-3-yloxy)pyridin-3-yl)-6-((S)-pyrrolidin-3-yloxy)nicotinamide dihydrochloride]"

# Continued, molecule first:
row,Structure (SMILES),Ki [µM]
1,"Cl.NCCOc1ccc(C(=O)Nc2cccc(-c3ccc(F)cc3)c2)cc1-c1ccc(F)cc1 [Compound 9, 2-((4′-Fluoro-5-((4′-fluoro-[1,1′-biphenyl]-3-yl)carbamoyl)-[1,1′-biphenyl]-2-yl)oxy) ethanaminium chloride]",33.6 ± 4.34
2,"NCCOc1ccc(C(=O)Nc2cccc(-c3ccc(F)c(F)c3)c2)cc1-c1ccc(F)cc1 [Compound 10, 2-((5-((3′,4′-Difluoro-[1,1′-biphenyl]-3-yl)carbamoyl)-4′-fluoro-[1,1′-biphenyl]-2-yl)oxy) ethanaminium chloride]",27.7 ± 3.67
3,"NCCOc1ccc(C(=O)Nc2cccc(-c3ccc(Cl)c(F)c3)c2)cc1-c1ccc(F)cc1 [Compound 11, 2-((5-((4′-Chloro-3′-fluoro-[1,1′-biphenyl]-3-yl)carbamoyl)-4′-fluoro-[1,1′-biphenyl]-2-yl)oxy) ethanaminium chloride]",87.1 ± 4.95
4,"NCCOc1ccc(C(=O)Nc2cccc(-c3ccc(Cl)cc3F)c2)cc1-c1ccc(F)cc1 [Compound 12, 2-((5-((4′-Chloro-2′-fluoro-[1,1′-biphenyl]-3-yl)carbamoyl)-4′-fluoro-[1,1′-biphenyl]-2-yl)oxy) ethanaminium chloride]",149 ± 5.69
5,"Cl.NCCOc1ccc(C(=O)Nc2cccc(-c3ccc(F)cc3)c2)cc1-c1ccc(F)c(F)c1 [Compound 13, 2-((3′,4′-Difluoro-5-((4′-fluoro-[1,1′-biphenyl]-3-yl)carbamoyl)-[1,1′-biphenyl]-2-yl)oxy) ethanaminium chloride]",29.3 ± 3.85
6,"NCCOc1ccc(C(=O)Nc2cccc(-c3ccc(F)cc3)c2)cc1-c1ccc(Cl)c(F)c1 [Compound 14, 2-((4′-Chloro-3′-fluoro-5-((4′-fluoro-[1,1′-biphenyl]-3-yl)carbamoyl)-[1,1′-biphenyl]-2-yl)oxy) ethanaminium chloride]",74 ± 3.48
7,"NCCOc1ccc(C(=O)Nc2cccc(-c3ccc(F)cc3)c2)cc1-c1ccsc1 [Compound 15, 2-(4-((4′-Fluoro-[1,1′-biphenyl]-3-yl)carbamoyl)-2-(thiophen-3-yl)phenoxy) ethanaminium chloride]",32.4 ± 4.24
8,"Cl.Cl.NCCOc1ccc(NC(=O)c2ccc(OCCN)c(-c3ccc(F)c(F)c3)c2)cc1-c1ccc(F)cc1 [Compound 17, 2-((5-(6-(2-Ammonioethoxy)-3′,4′-difluoro-[1,1′-biphenyl]-3-ylcarboxamido)-4′-fluoro-[1,1′-biphenyl]-2-yl)oxy) ethanaminium chloride]",6.12 ± 1.53
9,"O=C(Nc1ccc(O[C@@H]2CCNC2)c(-c2ccc(F)cc2)c1)c1ccc(O[C@@H]2CCNC2)c(-c2ccc(F)c(F)c2)c1 [Compound 26, (R)-3-((3′,4′-difluoro-5-((4′-fluoro-6-(((R)-pyrrolidin-1-ium-3-yl)oxy)-[1,1′-biphenyl]-3-yl)carbamoyl)-[1,1′-biphenyl]-2-yl)oxy) pyrrolidin-1-ium chloride]",4.08 ± 0.355
10,"O=C(Nc1ccc(O[C@H]2CCNC2)c(-c2ccc(F)cc2)c1)c1ccc(O[C@@H]2CCNC2)c(-c2ccc(F)c(F)c2)c1 [Compound 27, (R)-3-((3′,4′-difluoro-5-((4′-fluoro-6-(((S)-pyrrolidin-1-ium-3-yl)oxy)-[1,1′-biphenyl]-3-yl)carbamoyl)-[1,1′-biphenyl]-2-yl)oxy) pyrrolidin-1-ium chloride]",5.6 ± 0.514
11,"O=C(Nc1ccc(O[C@@H]2CCNC2)c(-c2ccc(F)cc2)c1)c1ccc(O[C@H]2CCNC2)c(-c2ccc(F)c(F)c2)c1 [Compound 28, (S)-3-((3′,4′-difluoro-5-((4′-fluoro-6-(((R)-pyrrolidin-1-ium-3-yl)oxy)-[1,1′-biphenyl]-3-yl)carbamoyl)-[1,1′-biphenyl]-2-yl)oxy) pyrrolidin-1-ium chloride]",3.41 ± 0.354
12,"COC(=O)c1ccc(OCCNC(=O)OC(C)(C)C)c(Br)c1 [Compound 30, Methyl-3-bromo-4-(2-((tert-butoxycarbonyl)amino)ethoxy) benzoate]",156 ± 3.96
13,"COC(=O)c1ccc(OCCNC(=O)OC(C)(C)C)c(-c2ccc(F)cc2)c1 [Compound 31, Methyl-6-(2-((tert-butoxycarbonyl)amino)ethoxy)-4′-fluoro-[1,1′-biphenyl]-3-carboxylate]",180 ± 4.84

# Reference: patent US20180092866A1, “SUBSTITUTED N-([1,1'-BIPHENYL]-3-YL)-[1,1'-BIPHENYL]-3-CARBOXAMIDE ANALOGS AS INHIBITORS FOR BETA-CATENIN/B-CELL LYMPHOMA 9 INTERACTIONS” (University of Utah Research Foundation, priority 2015, published 2018)
